According to patent US12129246B1, “Hydroquinazoline derivatives for the treatment of a disease or disorder” (Novartis AG, priority 2023, dated 2024):
Read-outs that look alike come from different tables or passages of the source.

Tests used:
monkey NPR1 = monkey NPR1 (Macaca fascicularis, UniProt A0A7N9DBT9); test: Cellular cGMP production assay, monkey NPR1 expressing CHO-K1 cells (CisBio HTRF); format: cell-based; settings: for Monkey NPR1 Amax (% of ANP): maximum cGMP production as percentage of the maximum cGMP produced with ANP
Chain of monkey NPR1 (A0A7N9DBT9 entry or part of it): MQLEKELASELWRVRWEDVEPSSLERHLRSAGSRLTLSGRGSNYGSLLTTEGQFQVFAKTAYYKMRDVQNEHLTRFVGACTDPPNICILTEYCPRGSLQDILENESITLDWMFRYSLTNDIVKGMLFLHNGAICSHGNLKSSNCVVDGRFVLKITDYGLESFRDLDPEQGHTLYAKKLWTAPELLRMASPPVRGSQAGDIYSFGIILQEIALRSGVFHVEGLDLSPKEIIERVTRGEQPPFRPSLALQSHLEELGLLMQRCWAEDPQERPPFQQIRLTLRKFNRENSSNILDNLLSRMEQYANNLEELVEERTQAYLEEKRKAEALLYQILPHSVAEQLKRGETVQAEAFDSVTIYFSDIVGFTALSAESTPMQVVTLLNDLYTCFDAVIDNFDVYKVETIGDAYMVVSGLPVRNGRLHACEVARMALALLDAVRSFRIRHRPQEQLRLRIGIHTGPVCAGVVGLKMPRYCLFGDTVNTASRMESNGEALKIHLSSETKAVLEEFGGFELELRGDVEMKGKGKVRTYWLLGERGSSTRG
In short: (§1)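 Step 1: add buffer (PBS, 0.1% BSA, 1 mM IBMX) and compounds, 3-fold series from 30 μM top. Step 2: incubate 30 min, 37 °C. Step 3: lyse; HTRF reagents 1 h at RT.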

human NPR1 = molecular target: T1, human NPR1 (Homo sapiens, UniProt P16066); test: Cellular cGMP production assay, human NPR1 expressing CHO-K1 cells (CisBio HTRF); format: cell-based; settings: for AC50: cGMP production, 30 min at 37° C., 12-point dose-response from 30 μM; for Human NPR1 Amax (% of ANP): maximum cGMP production as percentage of the maximum cGMP produced with ANP
T1 construct: host or cells: CHO-K1
T1 sequence (P16066 33-1061): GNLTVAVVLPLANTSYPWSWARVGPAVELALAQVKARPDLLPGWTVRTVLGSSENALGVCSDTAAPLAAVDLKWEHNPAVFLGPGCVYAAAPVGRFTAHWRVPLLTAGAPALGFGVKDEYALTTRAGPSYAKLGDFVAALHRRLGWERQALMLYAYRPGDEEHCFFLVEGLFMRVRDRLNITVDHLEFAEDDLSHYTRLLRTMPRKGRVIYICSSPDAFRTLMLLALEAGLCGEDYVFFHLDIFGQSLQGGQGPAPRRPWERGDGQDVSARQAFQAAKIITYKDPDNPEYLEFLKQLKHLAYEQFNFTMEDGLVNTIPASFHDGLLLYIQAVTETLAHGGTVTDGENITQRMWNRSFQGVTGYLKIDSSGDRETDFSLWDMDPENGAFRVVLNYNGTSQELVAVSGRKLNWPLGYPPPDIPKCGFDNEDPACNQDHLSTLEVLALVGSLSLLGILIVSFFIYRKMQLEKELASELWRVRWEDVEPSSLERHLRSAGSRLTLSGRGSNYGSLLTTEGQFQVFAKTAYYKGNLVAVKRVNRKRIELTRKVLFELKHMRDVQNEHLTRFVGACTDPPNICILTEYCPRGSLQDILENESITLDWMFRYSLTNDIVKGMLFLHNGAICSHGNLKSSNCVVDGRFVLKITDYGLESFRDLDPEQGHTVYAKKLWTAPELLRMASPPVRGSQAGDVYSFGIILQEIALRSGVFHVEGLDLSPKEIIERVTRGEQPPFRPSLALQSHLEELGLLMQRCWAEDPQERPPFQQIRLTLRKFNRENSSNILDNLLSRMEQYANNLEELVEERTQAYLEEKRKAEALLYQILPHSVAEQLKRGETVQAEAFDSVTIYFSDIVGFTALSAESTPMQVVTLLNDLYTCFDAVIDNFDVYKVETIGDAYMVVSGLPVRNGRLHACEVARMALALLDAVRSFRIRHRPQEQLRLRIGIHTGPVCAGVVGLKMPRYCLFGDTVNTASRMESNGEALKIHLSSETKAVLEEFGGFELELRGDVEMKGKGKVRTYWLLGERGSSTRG
In short: as §1

[1] = cGMP production, monkey NPR1 CHO-K1 cells, 30 min at 37° C., 12-point dose-response from 30 μM, read-out: Monkey NPR1 AC50

SMILES	AC50 (monkey NPR1; [1])	Monkey NPR1 Amax (% of ANP) (monkey NPR1; monkey NPR1 CHO-K1 cells)	AC50 (human NPR1)	Human NPR1 Amax (% of ANP) (human NPR1)	AC50 (monkey NPR1)
CC[C@H]([C@H]1CC[C@H](C(=O)O)CC1)N(C)c1nc2c(c(N[C@@H](CN3CCCCC3)c3cnn(C)c3)n1)C[C@](C)(c1ccccc1)CC2 [Compound 66, (1R,4r)-4-((R)-1-(methyl((R)-6-methyl-4-(((R)-1-(1-methyl-1H-pyrazol-4-yl)-2-(piperidin-1-yl)ethyl)amino)-6-phenyl-5,6,7,8-tetrahydroquinazolin-2-yl)amino)propyl)cyclohexane-1-carboxylic acid]	123 nM	98.088 % of ANP	219 nM	96.868 % of ANP	
CC[C@H]([C@H]1CC[C@H](C(=O)O)CC1)N(C)c1nc2c(c(N[C@@H](CN3CCC[C@H](C)C3)c3cnn(C)c3)n1)C[C@](C)(c1ccccc1)CC2 [Compound 7, (1R,4r)-4-((R)-1-(methyl((R)-6-methyl-4-(((R)-1-(1-methyl-1H-pyrazol-4-yl)-2-((S)-3-methylpiperidin-1-yl)ethyl)amino)-6-phenyl-5,6,7,8-tetrahydroquinazolin-2-yl)amino)propyl)cyclohexane-1-carboxylic acid]	50 nM	102.341 % of ANP	80 nM	97.105 % of ANP	
CC[C@@H](N(C)c1nc2c(c(N[C@@H](CN3C4CCCC3CCC4)c3cnn(C)c3)n1)C[C@H](c1cccc(F)c1)CC2)C12CC(C(=O)O)(C1)C2 [Compound 6, 3-((R)-1-(((R)-4-(((R)-2-((1S,5S)-9-azabicyclo[3.3.1]nonan-9-yl)-1-(1-methyl-1H-pyrazol-4-yl)ethyl)amino)-6-(3-fluorophenyl)-5,6,7,8-tetrahydroquinazolin-2-yl)(methyl)amino)propyl)bicyclo[1.1.1]pentane-1-carboxylic acid]		98.535 % of ANP	77 nM	98.462 % of ANP	58 nM
CC[C@@H](N(C)c1nc2c(c(N[C@@H](CN3C4CCCC3CC4)c3sc(C)nc3C)n1)C[C@H](c1cccc(F)c1)CC2)C12CC(C(=O)O)(C1)C2 [Compound 111, 3-((1R)-1-(((6R)-4-(((1S)-2-(8-azabicyclo[3.2.1]octan-8-yl)-1-(2,4-dimethylthiazol-5-yl)ethyl)amino)-6-(3-fluorophenyl)-5,6,7,8-tetrahydroquinazolin-2-yl)(methyl)amino)propyl)bicyclo[1.1.1]pentane-1-carboxylic acid]		103.264 % of ANP	424 nM	106.085 % of ANP	271 nM
CC[C@H]([C@H]1CC[C@H](CC(=O)O)CC1)N(C)c1nc2c(c(N[C@@H](CN3CCC[C@H](C)C3)c3cnn(C)c3)n1)C[C@H](c1ccccc1)CC2 [Compound 67, 2-((1R,4r)-4-((R)-1-(methyl((R)-4-(((R)-1-(1-methyl-1H-pyrazol-4-yl)-2-((S)-3-methylpiperidin-1-yl)ethyl)amino)-6-phenyl-5,6,7,8-tetrahydroquinazolin-2-yl)amino)propyl)cyclohexyl)acetic acid]	155 nM	98.233 % of ANP	229 nM	95.228 % of ANP	
CC(C)n1cc([C@H](CN2CCCCC2)Nc2nc(N[C@H](C)c3ccc(C(=O)O)cc3)nc3c2C[C@H](c2ccccc2)CC3)cn1 [Compound 171, 4-((R)-1-(((R)-4-(((R)-1-(1-isopropyl-1H-pyrazol-4-yl)-2-(piperidin-1-yl)ethyl)amino)-6-phenyl-5,6,7,8-tetrahydroquinazolin-2-yl)amino)ethyl)benzoic acid]	2320 nM	83.963 % of ANP	2770 nM	96.419 % of ANP	
CC[C@H]([C@H]1CC[C@H](C(=O)O)CC1)N(C)c1nc2c(c(N[C@@H](CN3C4CCCC3CC4)c3cnn(C)c3)n1)C[C@H](c1ccc(F)cc1)CC2 [Compound 31, (1R,4r)-4-((1R)-1-(((6R)-4-(((1R)-2-(8-azabicyclo[3.2.1]octan-8-yl)-1-(1-methyl-1H-pyrazol-4-yl)ethyl)amino)-6-(4-fluorophenyl)-5,6,7,8-tetrahydroquinazolin-2-yl)(methyl)amino)propyl)cyclohexane-1-carboxylic acid]		100.914 % of ANP	144 nM	92.978 % of ANP	89 nM
CC[C@H]([C@H]1CC[C@H](C(=O)O)CC1)N(C)c1nc2c(c(N[C@@H](CN3C4CCCC3CC4)c3cnn(C)c3C)n1)C[C@H](c1cccc(F)c1)CC2 [Compound 16, (1R,4r)-4-((1R)-1-(((6R)-4-(((1R)-2-(8-azabicyclo[3.2.1]octan-8-yl)-1-(1,5-dimethyl-1H-pyrazol-4-yl)ethyl)amino)-6-(3-fluorophenyl)-5,6,7,8-tetrahydroquinazolin-2-yl)(methyl)amino)propyl)cyclohexane-1-carboxylic acid]		98.785 % of ANP	103 nM	100.021 % of ANP	47 nM
CC[C@H]([C@H]1CC[C@H](C(=O)O)CC1)N(C)c1nc2c(c(N[C@@H](CN3CCCCC3)c3cnn(CC(F)(F)F)c3)n1)C[C@H](c1ccccc1)CC2 [Compound 167, (1R,4r)-4-((R)-1-(methyl((R)-6-phenyl-4-(((R)-2-(piperidin-1-yl)-1-(1-(2,2,2-trifluoroethyl)-1H-pyrazol-4-yl)ethyl)amino)-5,6,7,8-tetrahydroquinazolin-2-yl)amino)propyl)cyclohexane-1-carboxylic acid]	1430 nM	98.847 % of ANP	2090 nM	112.087 % of ANP	
CC[C@H]([C@H]1CC[C@H](C(=O)O)CC1)N(C)c1nc2c(c(N[C@@H](CN3CCC[C@H](C)C3)c3cnn(C)c3)n1)CN(c1cccc(F)c1)CC2 [Compound 124, (1R,4r)-4-((R)-1-((6-(3-fluorophenyl)-4-(((R)-1-(1-methyl-1H-pyrazol-4-yl)-2-((S)-3-methylpiperidin-1-yl)ethyl)amino)-5,6,7,8-tetrahydropyrido[4,3-d]pyrimidin-2-yl)(methyl)amino)propyl)cyclohexane-1-carboxylic acid]	406 nM	101.428 % of ANP	617 nM	106.069 % of ANP	
CC[C@@H](Nc1nc2c(c(N[C@@H](CN3CCCC3)c3ccccc3)n1)CN(c1cccc(F)c1)CC2)[C@H]1CC[C@H](C(=O)O)CC1 [Compound 99, (1R,4r)-4-((R)-1-((6-(3-fluorophenyl)-4-(((R)-1-phenyl-2-(pyrrolidin-1-yl)ethyl)amino)-5,6,7,8-tetrahydropyrido[4,3-d]pyrimidin-2-yl)amino)propyl)cyclohexane-1-carboxylic acid]	256 nM	94.886 % of ANP	351 nM	102.315 % of ANP	
CC[C@H]([C@H]1CC[C@H](C(=O)O)CC1)N(C)c1nc2c(c(N[C@@H](CN3CCCCC3)c3cnn(C)c3)n1)C[C@H](c1ccccc1)CC2 [Compound 118, (1R,4r)-4-((R)-1-(methyl((R)-4-(((R)-1-(1-methyl-1H-pyrazol-4-yl)-2-(piperidin-1-yl)ethyl)amino)-6-phenyl-5,6,7,8-tetrahydroquinazolin-2-yl)amino)propyl)cyclohexane-1-carboxylic acid]	400 nM	99.466 % of ANP	540 nM	94.446 % of ANP	
CC[C@H]([C@H]1CC[C@H](C(=O)O)CC1)N(C)c1nc2c(c(N[C@@H](CN3C4CCCC3CCC4)c3cnn(CC)c3)n1)C[C@H](c1cccc(F)c1)CC2 [Compound 18, (1R,4r)-4-((R)-1-(((R)-4-(((R)-2-((1S,5S)-9-azabicyclo[3.3.1]nonan-9-yl)-1-(1-ethyl-1H-pyrazol-4-yl)ethyl)amino)-6-(3-fluorophenyl)-5,6,7,8-tetrahydroquinazolin-2-yl)(methyl)amino)propyl)cyclohexane-1-carboxylic acid]		100.607 % of ANP	107 nM	97.609 % of ANP	71 nM
